Data set [1] has as its target T1, Aurora A bound to TPX2 (Homo sapiens, UniProt O14965).
T1 construct: human Aurora A kinase domain (residues 122-403 in the pET24-d vector); His-tag (cleaved yes); made in house; host or cells: E. coli
T1 sequence (O14965 122-403): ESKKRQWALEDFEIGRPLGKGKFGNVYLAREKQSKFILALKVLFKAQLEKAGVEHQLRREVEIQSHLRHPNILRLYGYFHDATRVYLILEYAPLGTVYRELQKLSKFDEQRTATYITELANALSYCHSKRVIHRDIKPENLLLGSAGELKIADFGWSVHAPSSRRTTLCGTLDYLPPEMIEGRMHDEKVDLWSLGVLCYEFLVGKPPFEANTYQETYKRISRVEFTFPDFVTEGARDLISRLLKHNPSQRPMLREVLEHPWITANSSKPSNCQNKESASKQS
In words: Aurora A kinase activity and inhibition in the presence of TPX2. The data set is classed as biochemical. As to conditions: TPX2 present.
Protocol: Aurora A and AuroraB kinases were assayed using the homogeneous time-resolved fluorescence (HTRF) KinEASE STK2 kit from Cisbio (France). […] For both enzymes, the reactions were run for 30 min at room temperature and stopped by the addition of 10 μL of detection buffer containing EDTA, antiphospho-Ser/Thr antibody labelled with europium cryptate, and XL-665 conjugated streptavidin (62.5 nM final concentration). After incubation at room temperature for one hour, fluorescence was measured at 620 nm (europium cryptate) and 665 nm (XL-665) after excitation at 317 nm (lag time 60 μs, integration time 500 μs) using a Tecan Infinite M1000 PRO microplate reader (Greiner 384-well plates, white, non-binding, small volume). The ratio of fluorescence (665 nm/620 nm) was calculated for each well and the results were expressed as follows: specific signal=ratio (sample)−ratio (negative control), where ratio=665 nm/620 nm×10^4. […] Each concentration was measured in duplicates, and two independent determinations were made for each IC50 value. IC50 curves were generated using a four-parameter logistic model (XLfit from IDBS).

For data set [2], the system named is HeLa cells. In words: Mitotic index of HeLa cells. The data set is classed as cell-based, human. Here is the method:
HeLa Kyoto cells were cultured in high-glucose DMEM with GlutaMAX (Life Technologies) media supplemented with 10% fetal calf serum (FCS) in a humidified 5% CO2 incubator at 37° C. For plasmid transfections, cells were seeded at 80-90% confluence. 4 μg of plasmid DNA in 100 μl OptiMEM and 4 μl of Lipofectamine 2000 (Life Technologies) in 100 μl OptiMEM were incubated in parallel for 5 minutes, mixed for 20 minutes and added to each well. All Aurora A clones were constructed using full-length Aurora A as a template with appropriate PCR primer pairs. […] For determining the mitotic index and the chromosome misalignment phenotype, cells were incubated with various concentrations of compounds for 20 h before analysis. […] For rescue experiments, HeLa Kyoto cells were first transfected with GFP-Aurora A, GFP-Aurora AR137A or GFP-Aurora AW277A for 20 h, followed by incubation with 9 for another 20 h before cells were fixed with cold methanol and stained.

Data set [3] concerns pThr288 Aurora A. In words: Phosphorylation of Aurora A Thr288 in cells. The format is cell-based, human. As to conditions: cells; read-out: cellular IC50 (pT288), phosphorylation of Aurora A Thr288. Here is the method: (§1) HeLa Kyoto cells were cultured in high-glucose DMEM with GlutaMAX (Life Technologies) media supplemented with 10% fetal calf serum (FCS) in a humidified 5% CO2 incubator at 37° C. For plasmid transfections, cells were seeded at 80-90% confluence. 4 μg of plasmid DNA in 100 μl OptiMEM and 4 μl of Lipofectamine 2000 (Life Technologies) in 100 μl OptiMEM were incubated in parallel for 5 minutes, mixed for 20 minutes and added to each well. All Aurora A clones were constructed using full-length Aurora A as a template with appropriate PCR primer pairs. […] GFP-Aurora AR137A and GFP-Aurora AW277A were engineered using a site directed mutagenesis kit (Agilent Technologies, no. 210515) with appropriate primers. For determining the mitotic index and the chromosome misalignment phenotype, cells were incubated with various concentrations of compounds for 20 h before analysis. Cells were likewise treated with 0.25 μM MLN8237 (Selleckchem, no. S1133) or 5 μM ZM447439 (Selleckchem, no. S1103). For flow cytometry analysis, 50 nM […] and 2.5 μM ZM447439 were used. For rescue experiments, HeLa Kyoto cells were first transfected with GFP-Aurora A, GFP-Aurora AR137A or GFP-Aurora AW277A for 20 h, followed by incubation with 9 for another 20 h before cells were fixed with cold methanol and stained. To assess the impact of compound 9 on cell cycle progression, DNA content was analyzed after propidium iodide staining using FACS (BD Accuri C6 flow cytometer).
For immunofluorescence, cells were fixed in cold methanol, washed in PBT (PBS supplemented with 0.05% Tween-20) and stained with the following primary antibodies: 1:200 rabbit anti-pT288 (Cell Signaling, C39D8), 1:200 rabbit anti-pH3S10 (Cell Signaling, D2C8), 1:500 mouse anti-α-tubulin (Transduction Laboratories, 612709), 1:300 mouse anti-GFP (MAB3580, Millipore), 1:200 anti-TPX2 (Santa Cruz Biotechnology, sc-32863), anti-Aurora A (Invitrogen, 458900). Secondary antibodies were anti-mouse conjugated to Alexa488 or Alexa568, as well as anti-rabbit conjugated to Alexa488 or Alexa568, all used at 1:500 (Invitrogen). […]

The test system of data set [4] is HeLa Kyoto cells. In words: Chromosome misalignment during metaphase. The format is cell-based, human. The settings on record: for misaligned chromosomes: HeLa Kyoto cells. Here is the method:
as §1
For immunofluorescence, cells were fixed in cold methanol, washed in PBT (PBS supplemented with 0.05% Tween-20) and stained with the following primary antibodies: 1:200 rabbit anti-pT288 (Cell Signaling, C39D8), 1:200 rabbit anti-pH3S10 (Cell Signaling, D2C8), 1:500 mouse anti-α-tubulin (Transduction Laboratories, 612709), 1:300 mouse anti-GFP (MAB3580, Millipore), 1:200 anti-TPX2 (Santa Cruz Biotechnology, sc-32863), anti-Aurora A (Invitrogen, 458900). Secondary antibodies were anti-mouse conjugated to Alexa488 or Alexa568, as well as anti-rabbit conjugated to Alexa488 or Alexa568, all used at 1:500 (Invitrogen). Confocal images were acquired on a Zeiss LSM 710 confocal microscope equipped with a Axiocam MRm (B/VVW) CCD camera using a 63×NA 1.0 oil objective and processed in ImageJ and Adobe Photoshop, maintaining relative image intensities within a series.

For data set [5], the system named is HeLa Kyoto cells. In words: DNA content analysis by flow cytometry. The format is cell-based, human. As to conditions: 48 h, 9 even at 10 μM. Here is the method:
as §1, with “For rescue experiments, HeLa Kyoto cells were first transfected with GFP-Aurora A, GFP-Aurora AR137A or GFP-Aurora AW277A for 20 h, followed by incubation with 9 for another 20 h before cells were fixed with cold methanol and stained.” left out
(In general: In flow cytometry, cells or beads pass a laser one at a time.)

The nature of data set [6]: In vitro reactivity towards glutathione (GSH). The data set is classed as physicochemical. As to conditions: after 24 h with 5 mM GSH, pH 7.4, 37° C. Here is the method:
[…] Reaction scheme and structures of modified analogs. b. LC chromatogram of the reaction mixture after t=0 h and t=14 h. […] 9-methylcarbazole (tret=2.44 min) was used as internal control. c. Concentration of compound 9 during the course of the reaction as determined by integration of the absorption peaks (at 310 nm) of compound 9 at tret=1.78 min. The average of two independent experiments is shown, SD is <5% for all data points. d. Aurora A inhibition in the HTRF biochemical assay. (d) Cellular pThr288 Aurora-A levels of cells incubated with 9 or rac-92 overnight at the indicated concentrations. The experiment was repeated twice and the error bars represent SD. […] Numbers represent average IC50±SD of two independent experiments.

Data set [7] relates to Aurora A localization, HeLa Kyoto cells. In words: Aurora A localization at the mitotic spindle (immunofluorescence). The data set is classed as cell-based, human. As to conditions: overnight. Here is the method:
as §1
Secondary antibodies were anti-mouse conjugated to Alexa488 or Alexa568, as well as anti-rabbit conjugated to Alexa488 or Alexa568, all used at 1:500 (Invitrogen). Confocal images were acquired on a Zeiss LSM 710 confocal microscope equipped with a Axiocam MRm (B/VVW) CCD camera using a 63×NA 1.0 oil objective and processed in ImageJ and Adobe Photoshop, maintaining relative image intensities within a series.

“Also recorded” adds a separate entry of the source. Like-named read-outs stand apart in the source and are kept apart here.

The term IC50 denotes the point on the concentration scale where inhibition reaches its midpoint. Broadly, the EC50 is the midpoint of the concentration-response curve. With `CCc1ccc(N=C2SC(=Cc3ccnc(Nc4ccc(C(=O)O)cn4)c3)C(=O)N2C)cc1` [Compound 9], the IC50 in data set [1] was 1400 nM; in data set [3] it was 760 nM. Further, the mitotic index is reported as about 15% in data set [2] (4 μM), about 25% in data set [2] (10 μM) and about 40% in data set [2] (25 μM). Besides, the misaligned chromosomes is reported as about 20% in data set [4] (4 μM), about 80% in data set [4] (10 μM) and about 85% in data set [4] (25 μM). Further, the EC50 in data set [4] (cellular activity as summarised in text, read-out: cellular activity EC50) is over 1000 nM; in data set [4] (read-out: phenotypic EC50, defective chromosome alignment during metaphase), 6000 nM. For the same compound, the “accumulation of cells with 8N and 16N DNA contents” value in data set [5] is reported as “did not occur”. The “conversion to GSH adduct” value in data set [6] turned out to be 50%. The “Aurora A localization at spindle microtubules and centrosomes” value in data set [7] is “notably displaced from the spindle microtubules; also recorded: impairs Aurora A localization at the spindle microtubules”.

These data come from US20190352297A1, “SELECTIVE AURORA A KINASE INHIBITORS” (UNIVERSITAT BERN, priority 2017, published 2019).
